The values below are quoted from earlier work in patent US20030101005A1, “Crystals and structures of perosamine synthase homologs” (priority 2001, published 2003).

This data set has as its target T1, His-tag RfbE fusion protein (GDP-4-keto-6-deoxy-D-mannose-4-aminotransferase) (Vibrio cholerae, UniProt Q06953).
T1 construct: His-tag
The conditions noted are these: substrate or cosubstrate of His-tag RfbE fusion protein.

T1 sequence (Q06953 whole entry, the tested form may be a part): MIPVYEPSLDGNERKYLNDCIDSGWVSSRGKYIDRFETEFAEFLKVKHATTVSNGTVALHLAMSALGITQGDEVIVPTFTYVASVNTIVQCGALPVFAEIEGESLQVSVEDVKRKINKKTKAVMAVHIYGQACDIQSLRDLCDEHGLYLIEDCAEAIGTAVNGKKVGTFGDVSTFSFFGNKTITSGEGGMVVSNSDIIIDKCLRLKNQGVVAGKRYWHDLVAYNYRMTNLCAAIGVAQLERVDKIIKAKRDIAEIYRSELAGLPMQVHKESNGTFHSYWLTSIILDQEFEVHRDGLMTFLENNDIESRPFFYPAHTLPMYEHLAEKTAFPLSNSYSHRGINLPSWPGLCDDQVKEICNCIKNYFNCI

In the case of `CC1OC(OP(=O)(O)OP(=O)(O)OCC2OC(n3cnc4c(=O)[nH]c(N)nc43)C(O)C2O)C(O)C(O)C1=O` [GDP-4-keto-6-deoxy-D-mannose], the “K(m)” value is 0.06 mM and the “V(max)” value is 38 nkat/mg protein.

For `N[C@@H](CCC(=O)O)C(=O)O` [L-glutamate], the “K(m)” value is 0.1 mM and the “V(max)” value was 42 nkat/mg protein.
